Data reported in patent US11278526B2, “Compounds and methods for treating lupus” (RECEPTOS LLC, priority 2016, dated 2022).
Entries after “also recorded” stand apart in the source; their conditions may differ.

Assays:
[1] = system: NZBWF1 mice; assay: Serum blood urea nitrogen (BUN) at termination; format: in vivo
Procedure: Lymphocyte counts were measured from whole blood taken at 23, 31, and 36.5 weeks using flow cytometry. Cells were gated for CD4+ T cells, CD8+ T cells, and CD19+ B cells. […] Serum blood urea nitrogen (BUN) was also measured at termination to assess kidney function.
As in Example 4, serum blood urea nitrogen (BUN) was measured at termination to assess kidney function.

[2] = system: NZBWF1 mice; assay: Kidney weight at termination (42 weeks); format: in vivo
Text: In SLE, inflammatory infiltrates known as Tertiary Lymphatic Tissue (TLT) accumulate in the kidney and spleen, among other tissues. As an indirect measure of disease progression, right and left kidneys were weighed (FIGS. 4A-4B) following termination at 42 weeks.
(§1) As in Example 5, left kidneys were weighed (FIG. 43) following termination at 42 weeks.

[3] = system: NZBWF1 mice; assay: Kidney lesion histology scoring (glomerular, tubular and interstitial lesions); format: in vivo; details: for Tubular and interstitial lesions: 0.3, 1.0, 3.0 mg/kg PO QD
Text: Kidney lesions are another indicator of SLE progression. Kidney slides from test mice were stained with H&E and PAS, to evaluate interstitial infiltrates, tubular atrophy, and interstitial fibrosis (collectively, “tubular and interstitial lesions”), mesangial expansion, endocapillary and extracapillary proliferation, glomerular deposits, (collectively, “glomerular lesions”). Each lesion subtype was scored using a 4 point scale: 0=not present, 1=mild, 2=moderate and 3=severe. Average scores were calculated by multiplying the incidence of each grade by the value of the grade for each of the seven lesions and then adding the scores for the group. Thus, an incidence of 3 animals for grade 3 of a lesion equals a score of 9. The scores were then divided by the number of animals scored in the group.
All slides were scored blind by assigning a random number to each animal and then affixing a temporary label with the random number to the slides. Scores were recorded using Graham StarTox software, version 3.1.0. The StarTox software has a setting that limits the screen display to the random number only, without group or animal number information for use while reading the slides.
as §1

[4] = system: splenocytes; assay: Splenocyte counts and immunophenotyping of spleen cell subtypes; format: in vivo, mice; details: NZBWF1 mice; for Total splenocyte counts relative to vehicle: 42 weeks; for Percent Reduction vs Vehicle: Activated CD4 + T cells / Percent Reduction vs Vehicle: CD4 + T cells / Percent Reduction vs Vehicle: CD8 + T cells / Percent Reduction vs Vehicle: CD11b + Ly6C^hi monocytes / Percent Reduction vs Vehicle: CD19 + B cells / Percent Reduction vs Vehicle: Follicular B cells / Percent Reduction vs Vehicle: Germinal Center B cells / Percent Reduction vs Vehicle: Marginal Zone B cells / Percent Reduction vs Vehicle: Marginal Zone Progenitor B cells / Percent Reduction vs Vehicle: Naive CD4 + T cells / Percent Reduction vs Vehicle: Plasma cells / Percent Reduction vs Vehicle: Tfh cells / Percent Reduction vs Vehicle: Total splenocytes / Percent Reduction vs Vehicle: Treg cells / Percent Reduction vs Vehicle: pDC: spleen
Procedure: To determine the effects of compound 148 on inflammatory infiltrate in the spleen, spleens were weighed at 42 weeks. […] Splenocyte suspensions were then prepared. RBCs were lysed and splenocytes were counted.
Plasmacytoid dendritic cells (pDC) express IFNAR1 (Interferon alpha receptor 1), which amplifies the proinflammatory response to type 1 interferons (e.g., IFNα) that are associated with lupus. IFNAR activity is considered to be an important modulator of signal strength and duration in pDC and subsequent activation of T and B cells in the inflammatory response. pDC counts were measured at termination.
To determine the effects of compound 5 on inflammatory infiltrate in the spleen, spleens were weighed at 42 weeks. […] Splenocyte suspensions were prepared for all three doses. RBCs were lysed and splenocytes were counted.

[5] = system: anti-dsDNA antibodies; assay: Serum anti-dsDNA antibody titers by ELISA; format: in vivo; details: NZBWF1 mice
Procedure: Serum anti-dsDNA antibody titers are used as an indicator of SLE state (see, e.g., Kavanaugh et al., “Guidelines for Clinical Use of the Antinuclear Antibody Test and Tests for Specific Autoantibodies to Nuclear Antigens”, Archives of Pathology & Laboratory Medicine, 124:1, 71-81 (2000)) in most (although not all) patient populations, (see, Isenberg et al., Rheumatology 46:1052-1056, 2007). Titers were measured at 23, 31, 36.5, and 42 weeks. ELISA was performed using an anti-dsDNA ELISA kit (Shibayagi Co., Ltd., cat. no. RSHAKRDD061) following manufacturer's protocol. Results were expressed as optical density (OD) and as arbitrary units per mL. The ELISA standard curve was generated from a pool of sera from mice used a previous study with a known high concentration of anti-dsDNA antibodies. The highest concentration used in the standard curve was 1:100 of that pooled sera. All test samples were diluted 1000-fold for testing. Data was analyzed using http://www.elisaanalysis.com.
As in Example 8, serum anti-dsDNA antibody titers were measured at 22, 30, 36, and 42 weeks. ELISA was performed using an anti-dsDNA ELISA kit.

[6] = 3.0 mg/kg PO QD (compound 148 study)

In the case of CC(C)Oc1ccc(-c2nc(-c3cccc4c3CC[C@@H]4NCCO)no2)cc1C#N [compound 5, (S)-5-(3-(1-(2-hydroxyethylamino)-2,3-dihydro-1H-inden-4-yl)-1,2,4-oxadiazol-5-yl)-2-isopropoxy benzonitrile], the “Serum BUN at termination vs vehicle” value ([1]; all doses 0.3, 1.0, 3.0 mg/kg PO QD) is reported as “significant reduction in serum BUN”, the “Left kidney weight relative to vehicle” value ([2]; 1.0 and 3.0 mg/kg PO QD) is reported as “significantly reduced kidney weight relative to vehicle” and the Glomerular lesion score ([3]; 0.3 mg/kg PO QD (compound 5 study)) is reported as “glomerular lesion score less than to that of the vehicle control, but not significant”. For the same molecule, the “Severity of glomerular lesions” value ([3]; 1.0 mg/kg and 3.0 mg/kg PO QD (compound 5 study)) was “dose-independent decrease in the severity of glomerular lesions”, the “Tubular and interstitial lesions compared to cyclophosphamide” value ([3]; 3.0 mg/kg PO QD (compound 5 study)) was “not statistically different from treatment with cyclophosphamide” and the “Tubular and interstitial lesions” value ([3]; significant at 1.0 and 3.0 mg/kg (compound 5 study)) was “dose-dependent decrease in tubular and interstitial lesions”. For the same molecule, the “Total splenocyte counts relative to vehicle” value ([4]; all groups 0.3, 1.0, 3.0 mg/kg PO QD (compound 5 study)) was “reduced”, the “Percent Reduction vs Vehicle: Activated CD4 + T cells” value ([4]; 0.3 mg/kg PO QD) was 46% and the “Percent Reduction vs Vehicle: CD4 + T cells” value ([4]; 0.3 mg/kg PO QD) was 51%. The “Percent Reduction vs Vehicle: CD8 + T cells” value ([4]; 0.3 mg/kg PO QD) was 46%, the “Percent Reduction vs Vehicle: CD11b + Ly6C^hi monocytes” value ([4]; 0.3 mg/kg PO QD) was −17% and the “Percent Reduction vs Vehicle: CD19 + B cells” value ([4]; 0.3 mg/kg PO QD) was 43%. The “Percent Reduction vs Vehicle: Follicular B cells” value ([4]; 0.3 mg/kg PO QD) was 43%, the “Percent Reduction vs Vehicle: Germinal Center B cells” value ([4]; 0.3 mg/kg PO QD) was 46% and the “Percent Reduction vs Vehicle: Marginal Zone B cells” value ([4]; 0.3 mg/kg PO QD) was 20%. The “Percent Reduction vs Vehicle: Marginal Zone Progenitor B cells” value ([4]; 0.3 mg/kg PO QD) was 75%, the “Percent Reduction vs Vehicle: Naive CD4 + T cells” value ([4]; 0.3 mg/kg PO QD) was 73% and the “Percent Reduction vs Vehicle: Plasma cells” value ([4]; 0.3 mg/kg PO QD) was 50%. For the same molecule, the “Percent Reduction vs Vehicle: Tfh cells” value ([4]; 0.3 mg/kg PO QD) was 35%, the “Percent Reduction vs Vehicle: Total splenocytes” value ([4]; 0.3 mg/kg PO QD) was 35% and the “Percent Reduction vs Vehicle: Treg cells” value ([4]; 0.3 mg/kg PO QD) was 37%. For the same molecule, the “Percent Reduction vs Vehicle: pDC” value ([4]; 0.3 mg/kg PO QD) was 49%, the “Percent Reduction vs Vehicle: Activated CD4 + T cells” value ([4]; 1.0 mg/kg PO QD) was 72% and the “Percent Reduction vs Vehicle: CD4 + T cells” value ([4]; 1.0 mg/kg PO QD) was 75%. For the same molecule, the “Percent Reduction vs Vehicle: CD8 + T cells” value ([4]; 1.0 mg/kg PO QD) was 77%, the “Percent Reduction vs Vehicle: CD11b + Ly6C^hi monocytes” value ([4]; 1.0 mg/kg PO QD) was 34% and the “Percent Reduction vs Vehicle: CD19 + B cells” value ([4]; 1.0 mg/kg PO QD) was 69%. For the same molecule, the “Percent Reduction vs Vehicle: Follicular B cells” value ([4]; 1.0 mg/kg PO QD) was 66%, the “Percent Reduction vs Vehicle: Germinal Center B cells” value ([4]; 1.0 mg/kg PO QD) was 57% and the “Percent Reduction vs Vehicle: Marginal Zone B cells” value ([4]; 1.0 mg/kg PO QD) was 63%. The “Percent Reduction vs Vehicle: Marginal Zone Progenitor B cells” value ([4]; 1.0 mg/kg PO QD) was 88%, the “Percent Reduction vs Vehicle: Naive CD4 + T cells” value ([4]; 1.0 mg/kg PO QD) was 91% and the “Percent Reduction vs Vehicle: Plasma cells” value ([4]; 1.0 mg/kg PO QD) was 66%. For the same molecule, the “Percent Reduction vs Vehicle: Tfh cells” value ([4]; 1.0 mg/kg PO QD) was 51%, the “Percent Reduction vs Vehicle: Total splenocytes” value ([4]; 1.0 mg/kg PO QD) was 50% and the “Percent Reduction vs Vehicle: Treg cells” value ([4]; 1.0 mg/kg PO QD) was 58%. For the same molecule, the “Percent Reduction vs Vehicle: pDC” value ([4]; 1.0 mg/kg PO QD) was 72%, the “Percent Reduction vs Vehicle: Activated CD4 + T cells” value ([4]; 3.0 mg/kg PO QD) was 80% and the “Percent Reduction vs Vehicle: CD4 + T cells” value ([4]; 3.0 mg/kg PO QD) was 81%. For the same molecule, the “Percent Reduction vs Vehicle: CD8 + T cells” value ([4]; 3.0 mg/kg PO QD) was 75%, the “Percent Reduction vs Vehicle: CD11b + Ly6C^hi monocytes” value ([4]; 3.0 mg/kg PO QD) was 28% and the “Percent Reduction vs Vehicle: CD19 + B cells” value ([4]; 3.0 mg/kg PO QD) was 74%. For the same molecule, the “Percent Reduction vs Vehicle: Follicular B cells” value ([4]; 3.0 mg/kg PO QD) was 72%, the “Percent Reduction vs Vehicle: Germinal Center B cells” value ([4]; 3.0 mg/kg PO QD) was 64% and the “Percent Reduction vs Vehicle: Marginal Zone B cells” value ([4]; 3.0 mg/kg PO QD) was 54%. For the same molecule, the “Percent Reduction vs Vehicle: Marginal Zone Progenitor B cells” value ([4]; 3.0 mg/kg PO QD) was 85%, the “Percent Reduction vs Vehicle: Naive CD4 + T cells” value ([4]; 3.0 mg/kg PO QD) was 88% and the “Percent Reduction vs Vehicle: Plasma cells” value ([4]; 3.0 mg/kg PO QD) was 70%. For the same molecule, the “Percent Reduction vs Vehicle: Tfh cells” value ([4]; 3.0 mg/kg PO QD) was 68%, the “Percent Reduction vs Vehicle: Total splenocytes” value ([4]; 3.0 mg/kg PO QD) was 60% and the “Percent Reduction vs Vehicle: Treg cells” value ([4]; 3.0 mg/kg PO QD) was 81%. The “Percent Reduction vs Vehicle: pDC” value ([4]; 3.0 mg/kg PO QD) was 68% and the “Serum anti-dsDNA antibody titers” value ([5]; 3 mg/kg PO QD, week 42, less than cyclophosphamide) was “decreased antibody titers at week 42”.

CC(C)Oc1ccc(-c2nc(-c3cccc4c3CC[C@@H]4N)no2)cc1C#N [compound 148, (S)-5-(3-(1-amino-2,3-dihydro-1H-inden-4-yl)-1,2,4-oxadiazol-5-yl)-2-isopropoxy-benzonitrile] was tested, and the “Serum BUN at termination vs vehicle” value ([1]; 3 mg/kg PO QD, p<0.05) was “significant reduction in serum BUN”, the “Kidney weight relative to vehicle” value ([2]; 3.0 mg/kg PO QD, p<0.05) was “significantly reduced kidney weight relative to vehicle” and the Glomerular lesion score ([3]; 0.3 mg/kg PO QD (compound 148 study)) was “glomerular lesion score similar to that of the vehicle control”. For the same molecule, the “Severity of glomerular lesions” value ([3]; 1.0 mg/kg and 3.0 mg/kg PO QD (compound 148 study)) was “dose-independent decrease in the severity of glomerular lesions”, the “Tubular and interstitial lesions” value ([3]; p<0.05 (compound 148 study)) was “dose-dependent decrease in tubular and interstitial lesions; also recorded: not statistically different from treatment with cyclophosphamide” and the “Combined kidney lesion score (glomerular plus tubular and interstitial) vs vehicle” value ([3]; all three treatment groups 0.3, 1.0, 3.0 mg/kg PO QD) was “dose-related decrease in combined kidney lesion score”. The “Total splenocyte counts relative to vehicle” value ([4]; all groups 0.3, 1.0, 3.0 mg/kg PO QD (compound 148 study)) was “reduced”, the “Decrease of splenic pDC counts relative to vehicle” value ([4]; at termination, 3.0 mg/kg PO QD (compound 148 study)) was 62% and the “Decrease in splenic CD4+ T cell population” value [4, 6] was 75%. The “Decrease in splenic Follicular (FO) B cells” value [4, 6] was 79%, the “Reduction in splenic CD8+ T cell population” value [4, 6] was 62% and the “Reduction in splenic CD19+ B cell population” value [4, 6] was 67%. The “Reduction in splenic Germinal Center (GC) B cell population” value [4, 6] was 51%, the “Reduction in splenic Marginal Zone (MZ) B cell population” value [4, 6] was 61% and the “Reduction in splenic activated CD4+ T cell population” value [4, 6] was 75%. The “Reduction in splenic naïve CD4+ T cells” value [4, 6] was 81%, the “Reduction in splenic plasma cell population” value [4, 6] was 30% and the “Serum anti-dsDNA antibody titers” value ([5]; all three dosages 0.3, 1.0, 3.0 mg/kg PO QD, ELISA optical density) was “decreased antibody titers at week 29; also recorded: decrease was not sustained over the course of the study”.
